# pEC50: −log10 of the molar value.
# Legend:
# [1] = NOVARTIS: Cytotoxicity against human hepatocellular carcinoma cell line (Huh7); type: toxicity, cell-based, Huh-7; settings: Huh7 cells (hepatocellular carcinoma cell line)
# [2] = system: Plasmodium falciparum; test: NOVARTIS: Inhibition of Plasmodium falciparum W2 (drug-resistant) proliferation in erythrocyte-based infection assay; type: functional, organism-based; settings: Plasmodium falciparum, W2; read-out: EC50
# [3] = system: Plasmodium falciparum; test: NOVARTIS: Inhibition of Plasmodium falciparum 3D7 (drug-susceptible) proliferation in erythrocyte-based infection assay; type: functional, organism-based; settings: Plasmodium falciparum, 3D7
compound,measurement,setting,value
COCCN(CC(=O)NCc1ccc(OC2CCN(CC(c3ccccc3)c3ccccc3)CC2)cc1)S(=O)(=O)c1ccccc1,CC50,[1],> 10 µM
same,pEC50,[2],6.28
same,pEC50,[3],6.00
CCCN(CCC)[P+](CCC)(c1ccc([P+](CCC)(N(CCC)CCC)N(CCC)CCC)cc1)N(CCC)CCC,CC50,[1],72.6 µM
same,pEC50,[2],7.18
same,pEC50,[3],6.71
c1ccc(Nc2ccnc(Nc3ccccc3)n2)cc1,CC50,[1],> 49 µM
same,pEC50,[2],5.72
same,pEC50,[3],6.09
COc1cccc(C(=O)NC(c2ccc(Cl)cc2)c2cc(Cl)c3cccnc3c2O)c1 (stereo not given),CC50,[1],> 100 µM
same,pEC50,[2],6.57
same,pEC50,[3],5.64
c1cncc(CCNc2nccn3c(-c4ccc5ccccc5c4)cnc23)c1,CC50,[1],34.4 µM
same,pEC50,[2],7.09
same,pEC50,[3],6.94
O=c1c(NCc2ccco2)nc2cc(Cl)ccc2n1CCNc1ncc(C(F)(F)F)cc1Cl,CC50,[1],63.8 µM
same,pEC50,[2],5.63
same,pEC50,[3],6.09
O=c1cc[nH]c2cc(N3CCCCCC3)c(F)cc12,CC50,[1],> 92 µM
same,pEC50,[2],6.30
same,pEC50,[3],5.88
O=C(COc1ccc(Cl)cc1)Nc1cccc(-c2nc3ncccc3o2)c1,CC50,[1],> 100 µM
same,pEC50,[2],6.51
same,pEC50,[3],5.79
CCOC(=O)c1ccc(NC(=O)c2ccc(S(=O)(=O)N3CC(C)CC(C)C3)cc2)cc1 (stereo not given),CC50,[1],> 100 µM
same,pEC50,[2],5.91
same,pEC50,[3],6.18
Cc1sc2nc3c4ccccc4c(NCCCN(C)C)nn3c(=O)c2c1C,CC50,[1],60 µM
same,pEC50,[2],5.64
same,pEC50,[3],5.18
O=C(CCC1CCCN(C(=O)c2ccsc2)C1)N1CCN(c2ccccn2)CC1 (stereo not given),CC50,[1],> 10 µM
same,pEC50,[2],< 5.96
same,pEC50,[3],< 5.90
O=C(CC(=NNc1nc(NN=C(CC(=O)C(F)(F)F)C(F)(F)F)nc(N(c2ccccc2)c2ccccc2)n1)C(F)(F)F)C(F)(F)F,CC50,[1],> 10 µM
same,pEC50,[2],6.00
same,pEC50,[3],6.17
CN(C)c1ccc(NC(=O)C2C3C=CC(O3)C2C(=O)O)cc1 (stereo not given),CC50,[1],32.8 µM
same,pEC50,[2],7.32
same,pEC50,[3],6.92
CCOc1ccc(-c2c[n+](-c3ccccc3)c3n2CCS3)cc1,CC50,[1],> 100 µM
same,pEC50,[2],6.64
same,pEC50,[3],6.38
C=CCn1nc(C(=O)N2CCCC2)c2c1CCC(N1CCCCCC1)C2 (stereo not given),CC50,[1],> 10 µM
same,pEC50,[2],7.40
same,pEC50,[3],6.11
O=C(C=Cc1ccc(Br)cc1)NC(=O)c1ccccc1O,CC50,[1],> 100 µM
same,pEC50,[2],5.69
same,pEC50,[3],6.16
CC(NC(=O)Cc1ccc(F)cc1)C(c1cccs1)N1CCOCC1 (stereo not given),CC50,[1],> 10 µM
same,pEC50,[2],< 5.90
same,pEC50,[3],5.70
CSc1cccc(NC(=O)C2C3C=CC4(O3)C2C(=O)N(Cc2ccc(F)cc2)C4C(=O)NC2CCCC(C)C2C)c1 (stereo not given),CC50,[1],> 100 µM
same,pEC50,[2],6.06
same,pEC50,[3],5.84
COc1ccc(C2CC(=O)C3=C(C2)NC(C)=C(C(=O)OC(C)C)C3c2ccccc2C)cc1OC (stereo not given),CC50,[1],> 100 µM
same,pEC50,[2],7.84
same,pEC50,[3],8.00
Cc1cc(NC(=O)C=Cc2ccccc2Cl)ccc1Br,CC50,[1],> 100 µM
same,pEC50,[2],6.46
same,pEC50,[3],5.90
CCN1C(=Cc2ccc3c4ccoc4ccc3[n+]2CC)C=Cc2c1ccc1occc21,CC50,[1],> 10 µM
same,pEC50,[2],6.12
same,pEC50,[3],6.27
COc1cc(CNc2ccc(N3CCCCC3)cc2)ccc1OCc1ccccc1F,CC50,[1],> 100 µM
same,pEC50,[2],6.47
same,pEC50,[3],6.32
O=C(c1ccc(-n2c(SCc3ccc(Cl)cc3)nc3ccccc3c2=O)cc1)N1CCOCC1,CC50,[1],> 100 µM
same,pEC50,[2],5.64
same,pEC50,[3],< 4.90
CN(C)c1ccc(-c2n(C)c3ccccc3[n+]2C)cc1,CC50,[1],> 100 µM
same,pEC50,[2],6.20
same,pEC50,[3],5.95
CC(C)CN(CC(O)CN(CCN1CCOCC1)S(=O)(=O)Cc1ccccc1)C(=O)C1CCCN1C(=O)OC(C)(C)C (stereo not given),CC50,[1],> 10 µM
same,pEC50,[2],< 5.90
same,pEC50,[3],< 5.95
CC(Nc1ccccc1)C(=O)Nc1cc(C(F)(F)F)ccc1Cl (stereo not given),CC50,[1],71.4 µM
same,pEC50,[2],5.89
same,pEC50,[3],5.91
C=CCNC(=O)c1ccc2c(c1)N=C(c1ccc(F)cc1)N(CCCC)C2,CC50,[1],16.9 µM
same,pEC50,[2],5.61
same,pEC50,[3],6.72
COc1ccc(/C=C\c2nc(=O)c3ccccc3o2)cc1,CC50,[1],> 10 µM
same,pEC50,[2],6.23
same,pEC50,[3],6.16
CCC(c1nc2ccccc2c(=O)n1-c1ccccc1OC)N(CCc1ccccc1)C(=O)CCc1ccccc1 (stereo not given),CC50,[1],4.17 µM
same,pEC50,[2],> 9.24
same,pEC50,[3],6.87
COC(=O)c1ccc(N(C(=O)Cc2c[nH]c3ccccc23)C(C(=O)NC2CCCCC2)c2ccccc2F)cc1 (stereo not given),CC50,[1],> 100 µM
same,pEC50,[2],6.71
same,pEC50,[3],6.70
CN(C)CCCNCc1cc(-c2cccnc2)ccc1O,CC50,[1],> 10 µM
same,pEC50,[2],6.29
same,pEC50,[3],6.62
COc1ccc(NC(=O)C2=C(C)Nc3c(C(=O)Nc4ccc(C)cc4)cnn3C2c2cccc(Cl)c2)cc1 (stereo not given),CC50,[1],> 100 µM
same,pEC50,[2],6.03
same,pEC50,[3],5.60
O=c1c2ccccc2nc(/C=C/c2ccc([N+](=O)[O-])o2)n1-c1ccc(Br)cc1,CC50,[1],> 10 µM
same,pEC50,[2],< 5.78
same,pEC50,[3],6.04
OCCN1CCN(c2cc(-c3cccnc3)nc(-c3ccncc3)n2)CC1,CC50,[1],> 10 µM
same,pEC50,[2],6.20
same,pEC50,[3],6.02
O=C(CSc1nccn1C1CCCC1)Nc1cc(C(F)(F)F)ccc1Cl,CC50,[1],> 100 µM
same,pEC50,[2],6.15
same,pEC50,[3],6.26
CCCC(C(=O)NC(C)(C)C)N1C(=O)c2cc(NC(C)=O)ccc2NC(=O)[C@@H]1c1ccccc1 (stereo not given in full),CC50,[1],5.45 µM
same,pEC50,[2],< 6.10
same,pEC50,[3],< 7.18
CCOC(=O)C1CCN(C(=O)C(=O)Nc2ccc3nc4n(c(=O)c3c2)CCCCC4)CC1,CC50,[1],> 100 µM
same,pEC50,[2],6.24
same,pEC50,[3],6.00
O=C(c1ccc([N+](=O)[O-])cc1)c1ccc(N2CCOCC2)c([N+](=O)[O-])c1,CC50,[1],> 100 µM
same,pEC50,[2],5.56
same,pEC50,[3],5.38
CC(CCc1ccccc1)N1CC(c2cccc([N+](=O)[O-])c2)OC1=S (stereo not given),CC50,[1],32.8 µM
same,pEC50,[2],7.74
same,pEC50,[3],6.51
N=c1c2c(n(CCc3ccccc3)c3c1CCC3)CCCC2,CC50,[1],15.3 µM
same,pEC50,[2],6.63
same,pEC50,[3],7.23
CCOC(=O)c1c(C)n(-c2ccccc2)c2ccc(O)cc12,CC50,[1],> 100 µM
same,pEC50,[2],5.58
same,pEC50,[3],5.77
CN(CCCNc1ccnc2cc(Cl)ccc12)S(=O)(=O)c1cccc2cccnc12,CC50,[1],> 10 µM
same,pEC50,[2],6.60
same,pEC50,[3],6.73
NC(=O)C1CCN(S(=O)(=O)c2cc(Br)c(Br)s2)CC1,CC50,[1],> 10 µM
same,pEC50,[2],< 5.90
same,pEC50,[3],< 6.12
O=[N+]([O-])c1cccc(C(O)CNCc2ccc3c(c2)OCO3)c1 (stereo not given),CC50,[1],> 100 µM
same,pEC50,[2],6.96
same,pEC50,[3],5.99
Cc1ccc(C(=O)CSc2nc(N)c(C#N)c(-c3cccs3)c2C#N)cc1,CC50,[1],> 100 µM
same,pEC50,[2],< 4.90
same,pEC50,[3],< 5.30
CCCCNC(=O)c1nn(-c2ccc(OC)cc2)c(=O)c2ccccc12,CC50,[1],> 100 µM
same,pEC50,[2],6.17
same,pEC50,[3],5.65
COC(=O)c1ccc2c(c1)C(=O)c1ccccc1C2C1c2ccccc2C(=O)c2cc(C(=O)OC)ccc21 (stereo not given),CC50,[1],> 10 µM
same,pEC50,[2],6.40
same,pEC50,[3],6.07
COc1ccc(Cn2c(-c3ccc(Cl)cc3)c[n+]3ccccc23)cc1,CC50,[1],> 10 µM
same,pEC50,[2],6.27
same,pEC50,[3],6.16
CCCOc1ccc(C2Sc3ccccc3N=C3C2=C(O)c2ccccc23)cc1OC (stereo not given),CC50,[1],> 100 µM
same,pEC50,[2],6.75
same,pEC50,[3],6.32
O=C(C1CC1)N1CCOc2c(cc(-c3csc4ccccc34)cc2OCCc2ccccn2)C1,CC50,[1],68.2 µM
same,pEC50,[2],6.23
same,pEC50,[3],6.15

# From ChEMBL document CHEMBL1156829 (Proc Natl Acad Sci U S A, 2008)
